Experimental data taken from ChEMBL document CHEMBL1126300, “Quinoline antifolate thymidylate synthase inhibitors: variation of the C2- and C4-substituents” (J Med Chem, 1992).
pIC50: −log10 of the molar value.

Key:
L1210 = test: In vitro inhibition of L1210 mouse leukemia cell growth in culture; assay type: functional, cell-based
Thymidylate synthase = Thymidylate synthase (Mus musculus, UniProt P07607); test: In vitro inhibitory activity against thymidylate synthase from L1210 mouse leukemia cells; assay type: cell-based
WIL2 = test: Inhibition of human derived cell line W1-L2 cell proliferation; assay type: functional, cell-based

Thymidylate synthase, sequence (P07607 whole entry): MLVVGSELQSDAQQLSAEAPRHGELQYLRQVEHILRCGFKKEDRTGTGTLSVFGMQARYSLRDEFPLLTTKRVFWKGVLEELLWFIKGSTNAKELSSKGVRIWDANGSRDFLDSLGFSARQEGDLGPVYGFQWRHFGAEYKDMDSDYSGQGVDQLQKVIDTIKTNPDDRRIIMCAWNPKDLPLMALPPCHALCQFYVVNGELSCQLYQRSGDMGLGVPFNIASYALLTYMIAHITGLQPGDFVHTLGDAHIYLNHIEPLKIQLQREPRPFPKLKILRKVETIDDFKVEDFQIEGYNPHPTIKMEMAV

For `C#CCN(Cc1ccc2nc(Cl)ccc2c1)c1ccc(C(=O)N[C@@H](CCC(=O)O)C(=O)O)cc1`, the pIC50 (L1210) was < 4.00 and the pIC50 (Thymidylate synthase) was 5.59.

In the case of `C#CCN(Cc1ccc2nc(OC)cc(Cl)c2c1)c1ccc(C(=O)N[C@@H](CCC(=O)O)C(=O)O)cc1`, the pIC50 (L1210) was < 4.00 and the pIC50 (Thymidylate synthase) was 5.05.

In the case of `CCN(Cc1ccc2nc(N)cc(OC)c2c1)c1ccc(C(=O)N[C@@H](CCC(=O)O)C(=O)O)cc1`, the pIC50 (L1210) was 4.00 and the pIC50 (Thymidylate synthase) was 5.72.

With `C#CCN(Cc1ccc2nc(C)cc(Br)c2c1)c1ccc(C(=O)N[C@@H](CCC(=O)O)C(=O)O)cc1` the pIC50 (L1210) was 4.85 and the pIC50 (Thymidylate synthase) was 6.66.

For `Cc1cc(Cl)c2cc(CN(C)c3ccc(C(=O)N[C@@H](CCC(=O)O)C(=O)O)cc3)ccc2n1`, the pIC50 (L1210) was 4.62 and the pIC50 (Thymidylate synthase) was 5.64.

`C#CCN(Cc1ccc2nc(C)cc(Br)c2c1)c1ccc(C(=O)N[C@@H](CCC(=O)O)C(=O)O)c(F)c1` gave a pIC50 (L1210) of 6.00 and a pIC50 (Thymidylate synthase) of 7.02.

For `CCN(Cc1ccc2nc(CO)cc(Cl)c2c1)c1ccc(C(=O)N[C@@H](CCC(=O)O)C(=O)O)cc1`, the pIC50 (L1210) was < 4.00 and the pIC50 (Thymidylate synthase) was 5.98.

In the case of `C#CCN(Cc1ccc2nc(N)cc(C)c2c1)c1ccc(C(=O)N[C@@H](CCC(=O)O)C(=O)O)cc1`, the pIC50 (L1210) was 5.40 and the pIC50 (Thymidylate synthase) was 6.46.

In the case of `C#CCN(Cc1ccc2nc(C)cc(C)c2c1)c1ccc(C(=O)N[C@@H](CCC(=O)O)C(=O)O)cc1`, the pIC50 (L1210) was < 4.00.

`C#CCN(Cc1ccc2nc(C)cc(Cl)c2c1)c1ccc(C(=O)N[C@@H](CCC(=O)O)C(=O)O)cc1` showed a pIC50 (L1210) of 5.10 and a pIC50 (Thymidylate synthase) of 6.60.

For `C#CCN(Cc1ccc2nc(C(N)=O)cc(Cl)c2c1)c1ccc(C(=O)N[C@@H](CCC(=O)O)C(=O)O)cc1`, the pIC50 (L1210) was < 4.00 and the pIC50 (Thymidylate synthase) was 5.72.

With `Cc1cc(Cl)c2cc(CNc3ccc(C(=O)N[C@@H](CCC(=O)O)C(=O)O)cc3)ccc2n1` the pIC50 (L1210) was < 4.00 and the pIC50 (Thymidylate synthase) was 4.42.

In the case of `C#CCN(Cc1ccc2nc(C)cc(OC)c2c1)c1ccc(C(=O)N[C@@H](CCC(=O)O)C(=O)O)cc1`, the pIC50 (L1210) was < 4.00 and the pIC50 (Thymidylate synthase) was 5.22.

In the case of `C#CCN(Cc1ccc2nc(C(F)(F)F)cc(Cl)c2c1)c1ccc(C(=O)N[C@@H](CCC(=O)O)C(=O)O)cc1`, the pIC50 (L1210) was < 4.00 and the pIC50 (Thymidylate synthase) was 6.82.

`C#CCN(Cc1ccc2nc(C)ccc2c1)c1ccc(C(=O)N[C@@H](CCC(=O)O)C(=O)O)cc1` was tested, and the pIC50 (L1210) was < 4.00 and the pIC50 (Thymidylate synthase) was 5.10.

Work on `C#CCN(Cc1ccc2[nH]c(N)nc(=O)c2c1)c1ccc(C(=O)N[C@@H](CCC(=O)O)C(=O)O)cc1` yielded a pIC50 (WIL2) of 6.36.

For `C#CCN(Cc1ccc2nc(Cl)cc(C)c2c1)c1ccc(C(=O)N[C@@H](CCC(=O)O)C(=O)O)cc1`, the pIC50 (L1210) was < 4.00 and the pIC50 (Thymidylate synthase) was 6.92.

`C#CCN(Cc1ccc2nc(Cl)cc(Cl)c2c1)c1ccc(C(=O)N[C@@H](CCC(=O)O)C(=O)O)c(F)c1` gave a pIC50 (L1210) of 6.00 and a pIC50 (Thymidylate synthase) of 7.64.

For `C#CCN(Cc1ccc2nc(C)cc(C#N)c2c1)c1ccc(C(=O)N[C@@H](CCC(=O)O)C(=O)O)cc1`, the pIC50 (L1210) was 4.12 and the pIC50 (Thymidylate synthase) was 5.82.

`C#CCN(Cc1ccc2nc(C)cc(Cl)c2c1)c1ccc(C(=O)N[C@@H](CCC(=O)O)C(=O)O)c(F)c1` was tested, and the pIC50 (L1210) was 6.38 and the pIC50 (Thymidylate synthase) was 7.18.

With `C#CCN(Cc1ccc2nc(CF)cc(Cl)c2c1)c1ccc(C(=O)N[C@@H](CCC(=O)O)C(=O)O)cc1` the pIC50 (L1210) was < 4.00 and the pIC50 (Thymidylate synthase) was 6.21.

Work on `CCN(Cc1ccc2nccc(Cl)c2c1)c1ccc(C(=O)N[C@@H](CCC(=O)O)C(=O)O)cc1` yielded a pIC50 (L1210) of 4.52 and a pIC50 (Thymidylate synthase) of 5.95.

`C#CCN(Cc1ccc2nc(N)cc(Cl)c2c1)c1ccc(C(=O)N[C@@H](CCC(=O)O)C(=O)O)cc1` was tested, and the pIC50 (L1210) was 4.96 and the pIC50 (Thymidylate synthase) was 7.02.

`C#CCN(Cc1ccc2nc(NC(C)=O)cc(Cl)c2c1)c1ccc(C(=O)N[C@@H](CCC(=O)O)C(=O)O)cc1` was tested, and the pIC50 (L1210) was < 4.00 and the pIC50 (Thymidylate synthase) was 5.92.

`CCN(Cc1ccc2nc(C)cc(Cl)c2c1)c1ccc(C(=O)N[C@@H](CCC(=O)O)C(=O)O)cc1` gave a pIC50 (L1210) of 4.64 and a pIC50 (Thymidylate synthase) of 6.13.

`C#CCN(Cc1ccc2nc(C)cc(SC)c2c1)c1ccc(C(=O)N[C@@H](CCC(=O)O)C(=O)O)cc1` gave a pIC50 (L1210) of 4.00 and a pIC50 (Thymidylate synthase) of 5.05.

`C#CCN(Cc1ccc2nc(Cl)cc(Cl)c2c1)c1ccc(C(=O)N[C@@H](CCC(=O)O)C(=O)O)cc1` showed a pIC50 (L1210) of 5.10.

For `C#CCN(Cc1ccc2nc(CC)cc(Cl)c2c1)c1ccc(C(=O)N[C@@H](CCC(=O)O)C(=O)O)cc1`, the pIC50 (L1210) was < 4.00 and the pIC50 (Thymidylate synthase) was 6.00.

For `C#CCN(Cc1ccc2nc(N)cc(Cl)c2c1)c1ccc(C(=O)N[C@@H](CCC(=O)O)C(=O)O)c(F)c1`, the pIC50 (L1210) was 5.54 and the pIC50 (Thymidylate synthase) was 7.32.

`C#CCN(Cc1ccc2nc(C)cc(O)c2c1)c1ccc(C(=O)N[C@@H](CCC(=O)O)C(=O)O)cc1` was tested, and the pIC50 (L1210) was < 4.00 and the pIC50 (Thymidylate synthase) was 5.20.

For `C#CCN(Cc1ccc2nc(C(=O)O)cc(Cl)c2c1)c1ccc(C(=O)N[C@@H](CCC(=O)O)C(=O)O)cc1`, the pIC50 (L1210) was < 4.00 and the pIC50 (Thymidylate synthase) was 4.51.

`C#CCN(Cc1ccc2nc(Cl)cc(OC)c2c1)c1ccc(C(=O)N[C@@H](CCC(=O)O)C(=O)O)cc1` gave a pIC50 (Thymidylate synthase) of 6.82.
